Source: patent US20060079696A1, “Substituted compounds derived from N-(benzyl)phenylacetamide, preparation and uses” (GENFIT, priority 2004, published 2006)

molecular target: T1, ATP-dependent potassium channels (K+ATP) (Rattus norvegicus, UniProt Q09429); test: [3H]glibenclamide binding to ATP-dependent potassium channels of rat cerebral cortex; conditions: 1 h; 300 nM; specific displacement of [3H]glibenclamide 0.1 nM; read-out: KATP binding (300 nM)
T1 construct: the potassium channels derive from a rat's cerebral cortex; tissue CEREP; host or cells: rat cerebral cortex
Procedure: The results shown reflect the specific affinity of the inventive compounds on the ATP-dependent (K^+ATP) potassium channels. The specific binding measured corresponds to the difference between the total binding and the non-specific binding determined in the presence of an excess of non-marked reference ligand (glibenclamide 1 μM). The inventive compounds were tested at doses between 3 and 300 nM: the higher the percentage measured, the stronger the affinity of the compound for the ATP-dependent potassium channels.
The binding test was carried out at CEREP (Celle L'Evescault, France (86)) according to a protocol inspired by Angel et al. (Angel and Bidet 1991): the potassium channels derive from a rat's cerebral cortex and the reference compound is [^3H]glibenclamide at 0.1 nM. The protocol consists of incubation at 22° C. for one hour.

T1 sequence (Q09429 whole entry): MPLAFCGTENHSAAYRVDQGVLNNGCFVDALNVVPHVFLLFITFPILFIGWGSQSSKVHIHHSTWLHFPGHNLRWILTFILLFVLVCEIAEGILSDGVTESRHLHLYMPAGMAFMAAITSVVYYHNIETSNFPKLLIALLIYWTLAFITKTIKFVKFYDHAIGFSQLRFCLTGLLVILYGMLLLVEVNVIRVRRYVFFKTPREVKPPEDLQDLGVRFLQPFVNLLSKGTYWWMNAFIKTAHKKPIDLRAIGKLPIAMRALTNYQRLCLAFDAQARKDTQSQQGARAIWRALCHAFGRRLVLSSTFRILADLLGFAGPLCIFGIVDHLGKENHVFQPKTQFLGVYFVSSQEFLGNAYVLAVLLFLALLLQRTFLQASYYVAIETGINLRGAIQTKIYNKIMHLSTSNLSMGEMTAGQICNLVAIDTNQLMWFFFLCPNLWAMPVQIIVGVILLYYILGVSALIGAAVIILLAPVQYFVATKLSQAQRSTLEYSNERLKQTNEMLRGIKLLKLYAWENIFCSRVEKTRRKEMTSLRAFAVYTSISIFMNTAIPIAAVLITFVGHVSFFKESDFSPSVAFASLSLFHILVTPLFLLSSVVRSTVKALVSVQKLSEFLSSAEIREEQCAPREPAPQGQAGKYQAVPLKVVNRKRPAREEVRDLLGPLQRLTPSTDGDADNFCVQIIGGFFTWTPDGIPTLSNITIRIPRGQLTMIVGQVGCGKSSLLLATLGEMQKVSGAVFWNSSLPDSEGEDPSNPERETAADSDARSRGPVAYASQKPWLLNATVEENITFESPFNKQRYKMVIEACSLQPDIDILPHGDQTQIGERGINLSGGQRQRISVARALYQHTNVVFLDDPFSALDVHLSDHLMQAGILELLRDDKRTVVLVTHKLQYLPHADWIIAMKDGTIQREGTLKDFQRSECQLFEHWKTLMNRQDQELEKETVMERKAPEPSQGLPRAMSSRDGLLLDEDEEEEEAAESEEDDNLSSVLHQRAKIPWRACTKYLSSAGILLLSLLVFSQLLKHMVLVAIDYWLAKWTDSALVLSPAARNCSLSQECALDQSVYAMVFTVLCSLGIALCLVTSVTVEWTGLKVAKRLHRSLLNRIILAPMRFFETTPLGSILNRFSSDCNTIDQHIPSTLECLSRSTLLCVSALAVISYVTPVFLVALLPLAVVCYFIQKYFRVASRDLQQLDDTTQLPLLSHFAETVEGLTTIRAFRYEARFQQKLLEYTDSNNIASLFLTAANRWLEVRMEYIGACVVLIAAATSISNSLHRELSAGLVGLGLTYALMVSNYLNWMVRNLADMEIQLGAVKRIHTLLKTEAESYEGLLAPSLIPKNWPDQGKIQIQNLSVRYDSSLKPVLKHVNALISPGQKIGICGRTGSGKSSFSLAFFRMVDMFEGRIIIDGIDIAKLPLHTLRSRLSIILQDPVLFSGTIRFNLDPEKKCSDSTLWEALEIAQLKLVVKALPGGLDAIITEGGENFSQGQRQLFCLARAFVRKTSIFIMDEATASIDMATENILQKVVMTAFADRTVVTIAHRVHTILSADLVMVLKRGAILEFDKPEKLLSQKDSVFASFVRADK
T1 sequence (P70673 whole entry partner): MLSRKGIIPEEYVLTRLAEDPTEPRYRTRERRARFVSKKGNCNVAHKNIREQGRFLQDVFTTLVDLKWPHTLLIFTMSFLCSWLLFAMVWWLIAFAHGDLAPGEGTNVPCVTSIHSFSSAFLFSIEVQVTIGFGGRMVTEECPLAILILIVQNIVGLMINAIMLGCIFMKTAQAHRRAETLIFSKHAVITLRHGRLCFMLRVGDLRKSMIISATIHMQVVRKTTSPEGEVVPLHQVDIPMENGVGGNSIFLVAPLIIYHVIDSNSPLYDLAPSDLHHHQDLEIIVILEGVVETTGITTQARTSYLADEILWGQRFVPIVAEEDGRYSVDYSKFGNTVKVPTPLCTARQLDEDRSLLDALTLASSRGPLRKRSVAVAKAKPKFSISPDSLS

SMILES	inhibition at 0.3 µM
CCCCC(NC(=O)Cc1ccc(OC(C)(C)C(=O)O)cc1)c1ccccc1O (stereo not drawn) [Compound 44, 2-[4-[1-(1-(2-(hydroxy)phenyl)pentyl)aminocarbonylmethyl]phenoxy]-2-methylpropanoic acid]	48%
CC(C)(Oc1ccc(CC(=O)NC(c2ccccc2)c2ccccc2N2CCCCC2)cc1)C(=O)O (stereo not drawn) [Compound 3, 2-[4-[1-(1-phenyl-1-(2-(1-piperidinyl)phenyl)methyl)aminocarbonylmethyl]phenoxy]-2-methylpropanoic acid]	75%
CC(C)(Oc1ccc(CC(=O)NC(Cc2ccccc2)c2ccccc2N2CCCCC2)cc1)C(=O)NS(C)(=O)=O (stereo not drawn) [Compound 62, N-[methylsulfonyl]-2-[4-[1-(2-phenyl-1-(2-(1-piperidinyl)phenyl)ethyl)aminocarbonylmethyl]phenoxy]-2-methylpropanamide]	46%
CCN(CC)c1ccccc1C(CC(C)C)NC(=O)Cc1ccc(OC(C)(C)C(=O)O)cc1 (stereo not drawn) [Compound 20, 2-[4-[1-(3-methyl-1-(2-(diethylamino)phenyl)butyl)aminocarbonylmethyl]phenoxy]-2-methylpropanoic acid]	85%
CCCCC(NC(=O)Cc1ccc(OC(C)(C)C(=O)O)cc1)c1ccccc1S(=O)(=O)c1ccccc1 (stereo not drawn) [Compound 41, 2-[4-[1-(1-(2-(phenylsulfonyl)phenyl)pentyl)aminocarbonylmethyl]phenoxy]-2-methylpropanoic acid]	12%
CCCCC(c1ccccc1N1CCCCC1)N(CC(C)C)C(=O)Cc1ccc(OC(C)(C)C(=O)O)cc1 (stereo not drawn) [Compound 35, 2-[4-[N-isobutyl-N-(1-(2-(1-piperidinyl)phenyl)pentyl)aminocarbonylmethyl]phenoxy]-2-methylpropanoic acid]	22%
CC(C)CC(NC(=O)Cc1ccc(OC(C)(C)C(=O)O)cc1)c1cc(Br)ccc1N1CCCCC1 (stereo not drawn) [Compound 37, 2-[4-[1-(3-methyl-1-(2-(1-piperidinyl)-5-(bromo)phenyl)butyl)aminocarbonylmethyl]phenoxy]-2-methylpropanoic acid]	76%
CC(C)CC(NC(=O)Cc1ccc(OC(C)(C)C(=O)O)cc1)c1cc(Cl)ccc1N1CCCCC1 (stereo not drawn) [Compound 22, 2-[4-[1-(3-methyl-1-(2-(1-piperidinyl)-5-(chloro)phenyl)butyl)aminocarbonylmethyl]phenoxy]-2-methylpropanoic acid]	88%
CC(C)CC(NC(=O)Cc1cccc(OC(C)(C)C(=O)O)c1)c1ccccc1N1CCCCC1 (stereo not drawn) [Compound 29, 2-[3-[1-(3-methyl-1-(2-(1-piperidinyl)phenyl)butyl)aminocarbonylmethyl]phenoxy]-2-methylpropanoic acid]	15%
CC(C)CC(NC(=O)Cc1ccc(OC(C)(C)C(=O)O)cc1)c1cccc(N2CCCCC2)c1 (stereo not drawn) [Compound 8, 2-[4-[1-(3-methyl-1-(3-(1-piperidinyl)phenyl)butyl)aminocarbonylmethyl]phenoxy]-2-methylpropanoic acid]	48%
CC(C)(Oc1ccc(CC(=O)NC(c2ccccc2N2CCCCC2)C2CCCCC2)cc1)C(=O)O (stereo not drawn) [Compound 6, 2-[4-[1-(1-cyclohexyl-1-(2-(1-piperidinyl)phenyl)methyl)aminocarbonylmethyl]phenoxy]-2-methylpropanoic acid]	47%
CC(C)(Oc1ccc(CC(=O)NC(CCc2ccccc2)c2ccccc2N2CCCCC2)cc1)C(=O)O (stereo not drawn) [Compound 51, 2-[4-[1-(3-phenyl-1-(2-(1-piperidinyl)phenyl)propyl)aminocarbonylmethyl]phenoxy]-2-methylpropanoic acid]	32%
CC(C)CC(NC(=O)Cc1ccc(OC(C)(C)C(=O)O)c(Cl)c1)c1ccccc1N1CCCCC1 (stereo not drawn) [Compound 56, 2-[2-chloro-4-[1-(3-methyl-1-(2-(1-piperidinyl)phenyl)butyl)aminocarbonylmethyl]phenoxy]-2-methylpropanoic acid]	49%

Next, values leading:

inhibition at 0.3 µM	SMILES
91%	CCC(Oc1ccc(CC(=O)NC(CC(C)C)c2ccccc2N2CCCCC2)cc1)C(=O)O (stereo not drawn) [Compound 25, 2-[4-[1-(3-methyl-1-(2-(1-piperidinyl)phenyl)butyl)aminocarbonylmethyl]phenoxy]butanoic acid]
97%	CC(C)CC(NC(=O)Cc1ccc(OCC(=O)O)cc1)c1ccccc1N1CCCCC1 (stereo not drawn) [Compound 23, 2-[4-[1-(3-methyl-1-(2-(1-piperidinyl)phenyl)butyl)aminocarbonylmethyl]phenoxy]acetic acid]
76%	CC(C)CC(NC(=O)Cc1ccc(OC(C)(C)C(=O)O)cc1)c1ccccc1N1CCCC1 (stereo not drawn) [Compound 16, 2-[4-[1-(3-methyl-1-(2-(1-pyrrolidinyl)phenyl)butyl)aminocarbonylmethyl]phenoxy]-2-methylpropanoic acid]
93%	CC(C)CC(NC(=O)Cc1ccc(OC(C)C(=O)O)cc1)c1ccccc1N1CCCCC1 (stereo not drawn) [Compound 24, 2-[4-[1-(3-methyl-1-(2-(1-piperidinyl)phenyl)butyl)aminocarbonylmethyl]phenoxy]propanoic acid]
69%	CC(C)CC(NC(=O)Cc1ccc(OC(C)(C)C(=O)O)cc1)c1ccccc1N1CCCCCC1 (stereo not drawn) [Compound 18, 2-[4-[1-(3-methyl-1-(2-(1-hexamethyleneimino)phenyl)butyl)aminocarbonylmethyl]phenoxy]-2-methylpropanoic acid]
94%	CC(C)CC(NC(=O)Cc1ccc(OC(C)(C)C(=O)NS(C)(=O)=O)cc1)c1ccccc1N1CCCCC1 (stereo not drawn) [Compound 58, N-[methylsulfonyl]-2-[4-[1-(3-methyl-1-(2-(1-piperidinyl)phenyl)butyl)aminocarbonylmethyl]phenoxy]-2-methylpropanamide]
92%	CC(C)CC(NC(=O)Cc1ccc(OC(C(=O)O)C(C)C)cc1)c1ccccc1N1CCCCC1 (stereo not drawn) [Compound 26, 2-[4-[1-(3-methyl-1-(2-(1-piperidinyl)phenyl)butyl)aminocarbonylmethyl]phenoxy]-3-methylbutanoic acid]
95%	CC(C)CC(NC(=O)Cc1ccc(OC(C(=O)O)c2ccccc2)cc1)c1ccccc1N1CCCCC1 (stereo not drawn) [Compound 27, 2-[4-[1-(3-methyl-1-(2-(1-piperidinyl)phenyl)butyl)aminocarbonylmethyl]phenoxy]-2-phenylacetic acid]
